Experimental findings from US20100028366A1, “SYNERGISTIC EFFECT BETWEEN A […] AND ANOTHER OXIDATIVE INDUCING SYSTEM FOR TREATING TUMORS” (priority 2005, published 2010) are described below.

One experiment deals with GB-LP-1 cells. As to the kind of experiment: Survival by MTT of GB-LP-1 explant cells infected with adenolis. The experiment is classed as cell-based, human. The settings on record: 500 μg/ml linamarin; even at MOI: 1. Here is the method: The behavior of the lis/lin therapy in one of the explants (GB-LP-1) was additionally analyzed. These cells were infected with adenolis (MOI: 0, 1, 12, 100 and 500) and the survival and production of cyanide after the addition of 500 μg/ml linamarin (FIGS. 6G and 6H, respectively) were studied.
10^5 cells (W&W and patient explants) were seeded in test tubes with a flat side and screw-on cap (Nunc), or 5×10^4 cells were seeded on cover slips in 24-well plates and were simultaneously infected with adenolis (Crucell) at different multiplicities of infection (MOI: 0; 0.2; 1; 10; 100 or 500). For the cells seeded in test tubes, the medium was changed after 24 hours adding 0.5 mg/ml of linamarin where appropriate. A cell viability assay was conducted with MTT at 96 hours after the addition of linamarin. 48 hours after infection the cells seeded in the cover slips were processed to perform immunofluorescence to detect linamarase.

For experiment [1], the system named is W&Wlis cells. As to the kind of experiment: Measurement of intracellular ATP. The format is cell-based, canine. The settings on record: linamarin (500 μg/ml) and/or glucose oxidase (5 mEU/ml), over time, versus untreated cells. Here is the method:
The levels of intracellular energy in the form of ATP decrease when a blockage of the mitochondrial electron transport chain occurs since it is the essential source of obtaining energy of the cells. […] This effect is due to the fact that the maximum H2O2 production by glucose oxidase occurs at short times because the cells have the ability of detoxifying the peroxide and due to the fact that glucose oxidase is inactivated over time by the serum proteins.
10^5 W&Wlis cells were seeded in test tubes with a screw-on cap and flat side (Nunc). After 24 hours, the medium was changed, adding linamarin (500 μg/ml) and glucose oxidase (5 mEU/ml) where appropriate. After 4, 8, 12, 24, 48 or 72 hours, the cells were centrifuged and processed following the instructions of the ATP Bioluminescence Assay Kit CLS II, of Roche Applied Science. The luminescence was analyzed with a Monolight 2010 luminometer (Analytical Luminescence Laboratory, San Diego) and expressed in relative light units (RLU).

Experiment [2] has as its system W&Wlis cells. As to the kind of experiment: Cell viability analysis by MTT. The format is cell-based, canine. The method, then:
The mitochondrial enzymatic activity as indicative of cell viability was determined by means of using tetrazolium salts. In this assay 10^5 cells/test tube (culture test tubes with a flat side and screw-on cap to prevent the exit of HCN; Nunc) or 10^4 cells/well of 24-well plates closed with parafilm were seeded. After 24 hours of incubation fresh culture medium supplemented with the concentrations of linamarin (between 50 and 500 μg/ml) and glucose oxidase (5 mEU/ml) necessary for each experiment was added. In the assays in which it applied, the medium was supplemented with N-acetyl cysteine (10 mM), 1,5-isoquinolinediol (300 μM) or Z-VAD-fmk (100 μM). After the time stipulated in each experiment (between 12 and 96 hours), the culture medium was removed and fresh medium with 200 μg/mL of MTT (3-[4,5-dimethylthiazo-2-yl]-2,5-diphenyl tetrazolium bromide) was added. After 1.5 hours of incubation, the medium was removed and 3 ml (for the test tubes) or 1 ml (for the 24-well plates) of dimethyl sulfoxide was added to dissolve the formazan. After 10 minutes, the absorbance of the samples at 540 nm was determined. MTT is a tetrazolium salt soluble in aqueous medium (yellow) which is transformed by the mitochondrial dehydrogenases in formazan, an insoluble compound in aqueous medium (purple).

Experiment [3] concerns W&Wlis cells. As to the kind of experiment: DNA content analysis by flow cytometry, labeling with propidium iodide. The experiment is classed as cell-based, canine. More on the design: unit not given here. The note with it: Without GO. On the technique in general: Flow cytometry measures light scatter and fluorescence of single cells or particles in a stream.

Take `CC(C)(C#N)O[C@@H]1O[C@H](CO)[C@@H](O)[C@H](O)[C@H]1O` [lin, 2-hydroxy-isobutyronitrile-β-D-glucopyranoside]: in the experiment with GB-LP-1 cells, the “sensitivity of adenolis-infected cells to linamarin (survival)” value is listed as “very sensitive to treatment with linamarin”. In the experiment with W&Wlis cells [1], the “intracellular ATP levels” value is “progressive and rapid depletion of ATP which becomes almost complete after 48 hours”. Besides, the “effect of NAC addition on death in the cell viability assay by MTT” value in the experiment on W&Wlis cells [2] (10 mM N-acetyl cysteine (NAC) in the medium) is reported as “did not cause any effect”. Besides, the “cell survival by MTT” value in the experiment on W&Wlis cells [2] (96 hours, linamarin 200 to 500 μg/ml, without GO) is “drastic reduction of the survival”. The “time after which cell viability begins to decrease (MTT)” value with W&Wlis cells [2] (linamarin alone, or combined therapy at 500 μg/ml linamarin with 5 mEU/ml glucose oxidase) turned out to be 48 h. Moreover, the “DNA content by flow cytometry, labeling with propidium iodide” value is 1.95 in the experiment with W&Wlis cells [3] (50 μg lin, 48 hours); 2.77 in the experiment on W&Wlis cells [3] (50 μg lin, 72 hours); 1.89 in the experiment on W&Wlis cells [3] (200 μg lin, 48 hours); 3.14 in the experiment on W&Wlis cells [3] (200 μg lin, 72 hours); 3.21 in the experiment on W&Wlis cells [3] (500 μg lin, 48 hours); 4.91 in the experiment on W&Wlis cells [3] (500 μg lin, 72 hours).
